Source: PubChem BioAssay (NCI)
Values joined by “and” are separate entries in the source; they are usually repeats but may differ in a detail not shown here. Identical values can stand only once.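 Results reflect a 48-hour exposure of cells in 96-well plates to compound at five concentrations. GI50 = concentration required for 50% inhibition of growth. Definition used: TGI = concentration required for complete inhibition of growth.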

The compounds below were run on RPMI-8226 leukemia (assay: NCI-60 cell line screen, 48 h).
For `N#CC1Nc2ccccc2[C@@H](O)C1O` (stereo partly drawn), the TGI was > 100 µM.
Work on `O=C1c2ccn(CCCCNC(CO)(CO)CO)c2C(=O)c2c1c(O)c1ccccc1c2O` yielded a GI50 of 1.21 µM and a TGI of 11 µM.
With `COc1ccc(-c2cc(-c3cccn3C)c(C#N)c(N)n2)cc1OC` the GI50 was 38.5 µM and the TGI was > 100 µM.

The compounds below were run on SF-295 CNS (assay: NCI-60 cell line screen, 48 h).
`COc1ccccc1/C=C/c1cnccn1` was tested, and the TGI was > 10 µM.
Work on `Nc1nc(Nc2ccccc2)c2ncn(Cc3cc4c(cc3Br)OCO4)c2n1` yielded a GI50 of 0.037 µM and a TGI of 7.27 µM.
In the case of `O=C(Nc1cccc(Cl)c1)c1cc2ccccc2cc1O`, the GI50 is reported as 4.11 µM and 13.1 µM and the TGI is reported as > 100 µM.
In the case of `Nc1c(C(=O)N/N=C/c2ccc(-c3ccc(Cl)cc3)o2)cnn1-c1ccnc2c(C(F)(F)F)cccc12`, the GI50 is reported as > 100 µM and the TGI is reported as > 100 µM.
`CCCCCc1c(C)[nH]c(/C=C2\N=C(c3ccc[nH]3)C=C2CC)c1C` was tested, and the GI50 was < 0.01 µM and the TGI was 0.0363 µM.
In the case of `CC(=O)Oc1ccccc1C(=O)N=C1[Se]CCN1C(=O)c1ccccc1OC(C)=O`, the GI50 is reported as 1.43 µM and the TGI is reported as 2.8 µM.
In the case of `CC(C)c1ccccc1S(=O)c1ccccc1C(C)(C)O` (stereo not drawn), the TGI is reported as 48.1 µM.
In the case of `CC(C)(C)C(=O)/C=C/c1ccc(Oc2ccccc2)cc1`, the TGI is reported as > 100 µM.
`CCOC(=O)[C@H](CCCNC(=O)OC(C)(C)C)NCc1ccc(OC)c(OC)c1` was tested, and the TGI was > 100 µM.
With `COC(COC(=O)N1CCN(C=O)CC1)C1=C(N2CC2)C(=O)C(C)=C(N2CC2)C1=O` (stereo not drawn) the TGI was 4.55 µM.
With `O=C(/C=C/c1c(O)ccc2ccccc12)c1ccc2ccccc2c1` the TGI was > 100 µM.
`N#CC(C#N)=c1[nH]c2cccc3c2-c2c(cccc2c3=C(C#N)C#N)[nH]1` was tested, and the TGI was > 100 µM.
`CSC1(CC(=O)N(C)C)C(=O)Nc2ccccc21` (stereo not drawn) was tested, and the TGI was > 100 µM.
In the case of `CC(=O)OCC1OC([S-])C(OC(C)=O)C(OC(C)=O)C1OC(C)=O.CC[PH+](CC)CC.CC[PH+](CC)CC.[Au].[Au]` (stereo not drawn), the GI50 is reported as 0.436 µM and the TGI is reported as 1.63 µM.
With `Cc1cc(C)n(CCNCCn2nc(C)cc2C)n1` the TGI was > 100 µM.
In the case of `COc1cc2c(cc1OCc1ccccc1)CNCC2`, the TGI is reported as > 100 µM.
In the case of `O=C(CN1CCCCC1)N1CCc2c([nH]c3ccccc23)C1c1cccnc1` (stereo not drawn), the TGI is reported as > 100 µM.
`O=C(O)c1cc(O)c2c(c1)C(C1c3cc(C(=O)O)cc(O)c3C(=O)c3c(OC4OC(CO)C(O)C(O)C4O)cccc31)c1cccc(OC3OC(CO)C(O)C(O)C3O)c1C2=O` (stereo not drawn) was tested, and the GI50 was > 100 µM and the TGI was > 100 µM.
In the case of `O/N=C\c1c(O)ccc2ccccc12`, the TGI is reported as > 100 µM.
For `Cc1n(Cc2ccc3ccccc3c2)cc[n+]1Cc1ccc2ccccc2c1`, the GI50 was 1.83 µM and the TGI was 7.21 µM.
Work on `Cc1c(C2Nc3ccccc3C2C)[nH]c2ccccc12` (stereo not drawn) yielded a GI50 of 11.5 µM and a TGI of 28.1 µM.
For `O=C(CCC(=O)Nc1cccc(Cl)c1)CC(=O)c1ccc(Cl)cc1`, the TGI was > 100 µM.
Compound `COc1ccc(C2C(C#N)=C(N)OC3=C2COc2ccc(F)cc23)cc1OC` (stereo not drawn) has a GI50 of 27.5 µM and a TGI of 67.5 µM.
For `CCCS(=O)(=O)Nc1ccc(Nc2c3ccccc3nc3ccccc23)c(OC)c1`, the TGI was 8.31 µM.
In the case of `CCN(CC)CC(C)(C)C(=O)/C=C/c1ccc(Cl)c(Cl)c1`, the GI50 is reported as 1.74 µM and the TGI is reported as 3.22 µM.
With `CN(C)Cc1c[nH]c2c1C(=O)c1c(c(O)c3ccccc3c1O)C2=O` the GI50 was 3.22 µM and the TGI was 17.1 µM.
`O=C(CSc1nnc(-c2ccccc2NC(=O)C(F)(F)F)c(=O)[nH]1)NC(=O)Nc1ccccc1` was tested, and the TGI was > 100 µM.
With `N#CC1Nc2ccccc2[C@@H](O)C1O` (stereo partly drawn) the TGI was > 100 µM.
Compound `O=C1c2ccn(CCCCNC(CO)(CO)CO)c2C(=O)c2c1c(O)c1ccccc1c2O` has a GI50 of 0.719 µM and a TGI of 2.24 µM.
With `CCOC(=O)c1[nH]c(COC(C)=O)c(CCCOC(C)=O)c1CCCOC(C)=O` the TGI was > 100 µM.
For `COc1ccc(-c2cc(-c3cccn3C)c(C#N)c(N)n2)cc1OC`, the GI50 was > 100 µM and the TGI was > 100 µM.

The compounds below were run on SF-539 CNS (assay: NCI-60 cell line screen, 48 h).
With `COc1ccccc1/C=C/c1cnccn1` the TGI was > 10 µM.
Work on `Nc1nc(Nc2ccccc2)c2ncn(Cc3cc4c(cc3Br)OCO4)c2n1` yielded a GI50 of 0.0394 µM and a TGI of 0.51 µM.
With `O=C(Nc1cccc(Cl)c1)c1cc2ccccc2cc1O` the GI50 was 3.17 µM and 0.577 µM and the TGI was 28.8 µM and > 100 µM.
`Nc1c(C(=O)N/N=C/c2ccc(-c3ccc(Cl)cc3)o2)cnn1-c1ccnc2c(C(F)(F)F)cccc12` was tested, and the GI50 was > 100 µM and the TGI was > 100 µM.
`CCCCCc1c(C)[nH]c(/C=C2\N=C(c3ccc[nH]3)C=C2CC)c1C` was tested, and the GI50 was 0.0153 µM and the TGI was 0.172 µM.
`CC(=O)Oc1ccccc1C(=O)N=C1[Se]CCN1C(=O)c1ccccc1OC(C)=O` was tested, and the GI50 was 1.06 µM and the TGI was 3.21 µM.
`CC(C)c1ccccc1S(=O)c1ccccc1C(C)(C)O` (stereo not drawn) was tested, and the TGI was > 100 µM.
In the case of `CCOC(=O)[C@H](CCCNC(=O)OC(C)(C)C)NCc1ccc(OC)c(OC)c1`, the TGI is reported as > 100 µM.
`COC(COC(=O)N1CCN(C=O)CC1)C1=C(N2CC2)C(=O)C(C)=C(N2CC2)C1=O` (stereo not drawn) showed a TGI of 0.342 µM.
`O=C(/C=C/c1c(O)ccc2ccccc12)c1ccc2ccccc2c1` was tested, and the TGI was > 100 µM.
For `N#CC(C#N)=c1[nH]c2cccc3c2-c2c(cccc2c3=C(C#N)C#N)[nH]1`, the TGI was > 100 µM.
For `CSC1(CC(=O)N(C)C)C(=O)Nc2ccccc21` (stereo not drawn), the TGI was > 100 µM.
`CC(=O)OCC1OC([S-])C(OC(C)=O)C(OC(C)=O)C1OC(C)=O.CC[PH+](CC)CC.CC[PH+](CC)CC.[Au].[Au]` (stereo not drawn) was tested, and the GI50 was 0.18 µM and the TGI was 0.624 µM.
For `Cc1cc(C)n(CCNCCn2nc(C)cc2C)n1`, the TGI was > 100 µM.
In the case of `COc1cc2c(cc1OCc1ccccc1)CNCC2`, the TGI is reported as > 100 µM.
For `O=C(CN1CCCCC1)N1CCc2c([nH]c3ccccc23)C1c1cccnc1` (stereo not drawn), the TGI was > 100 µM.
For `O=C(O)c1cc(O)c2c(c1)C(C1c3cc(C(=O)O)cc(O)c3C(=O)c3c(OC4OC(CO)C(O)C(O)C4O)cccc31)c1cccc(OC3OC(CO)C(O)C(O)C3O)c1C2=O` (stereo not drawn), the GI50 was > 100 µM and the TGI was > 100 µM.
In the case of `O/N=C\c1c(O)ccc2ccccc12`, the TGI is reported as > 100 µM.
`COc1cc2cn3c4ccc(O)cc4[nH]c(=O)c3c2cc1OC` gave a GI50 of 0.0176 µM and a TGI of 0.296 µM.
Work on `Cc1n(Cc2ccc3ccccc3c2)cc[n+]1Cc1ccc2ccccc2c1` yielded a GI50 of 1.37 µM and a TGI of 7.14 µM.
`Cc1c(C2Nc3ccccc3C2C)[nH]c2ccccc12` (stereo not drawn) gave a GI50 of 8.72 µM and a TGI of 25.1 µM.
For `O=C(CCC(=O)Nc1cccc(Cl)c1)CC(=O)c1ccc(Cl)cc1`, the TGI was > 100 µM.
In the case of `CC(=O)Oc1ccccc1C(=O)N=C1[Se]CCCN1C(=O)c1ccccc1OC(C)=O`, the GI50 is reported as 2.66 µM and the TGI is reported as 6.28 µM.
`COc1ccc(C2C(C#N)=C(N)OC3=C2COc2ccc(F)cc23)cc1OC` (stereo not drawn) gave a GI50 of 21.5 µM and a TGI of 75.4 µM.
Work on `CCCS(=O)(=O)Nc1ccc(Nc2c3ccccc3nc3ccccc23)c(OC)c1` yielded a TGI of 4.18 µM.
For `CCN(CC)CC(C)(C)C(=O)/C=C/c1ccc(Cl)c(Cl)c1`, the GI50 was 1.85 µM and the TGI was 3.54 µM.
For `O=C(CSc1nnc(-c2ccccc2NC(=O)C(F)(F)F)c(=O)[nH]1)NC(=O)Nc1ccccc1`, the TGI was > 100 µM.
In the case of `N#CC1Nc2ccccc2[C@@H](O)C1O` (stereo partly drawn), the TGI is reported as > 100 µM.
`CCOC(=O)c1[nH]c(COC(C)=O)c(CCCOC(C)=O)c1CCCOC(C)=O` was tested, and the TGI was > 100 µM.
For `COc1ccc(-c2cc(-c3cccn3C)c(C#N)c(N)n2)cc1OC`, the GI50 was 82.4 µM and the TGI was > 100 µM.

These compounds were tested on SK-MEL-2 melanoma (assay: NCI-60 cell line screen, 48 h).
With `COc1ccccc1/C=C/c1cnccn1` the TGI was > 10 µM.
For `Nc1nc(Nc2ccccc2)c2ncn(Cc3cc4c(cc3Br)OCO4)c2n1`, the GI50 was 0.0546 µM and the TGI was 42.3 µM.
With `O=C(Nc1cccc(Cl)c1)c1cc2ccccc2cc1O` the GI50 was 0.415 µM and 2.94 µM and the TGI was 4.63 µM and 40.8 µM.
With `Nc1c(C(=O)N/N=C/c2ccc(-c3ccc(Cl)cc3)o2)cnn1-c1ccnc2c(C(F)(F)F)cccc12` the GI50 was > 100 µM and the TGI was > 100 µM.
With `CCCCCc1c(C)[nH]c(/C=C2\N=C(c3ccc[nH]3)C=C2CC)c1C` the GI50 was < 0.01 µM and the TGI was 0.0257 µM.
`CC(=O)Oc1ccccc1C(=O)N=C1[Se]CCN1C(=O)c1ccccc1OC(C)=O` was tested, and the GI50 was 1.42 µM and the TGI was 3.91 µM.
In the case of `CC(C)c1ccccc1S(=O)c1ccccc1C(C)(C)O` (stereo not drawn), the TGI is reported as > 100 µM.
`CC(C)(C)C(=O)/C=C/c1ccc(Oc2ccccc2)cc1` was tested, and the TGI was 37.9 µM.
With `CCOC(=O)[C@H](CCCNC(=O)OC(C)(C)C)NCc1ccc(OC)c(OC)c1` the TGI was > 100 µM.
`O=C(/C=C/c1c(O)ccc2ccccc12)c1ccc2ccccc2c1` was tested, and the TGI was > 100 µM.
In the case of `CSC1(CC(=O)N(C)C)C(=O)Nc2ccccc21` (stereo not drawn), the TGI is reported as > 100 µM.
With `CC(=O)OCC1OC([S-])C(OC(C)=O)C(OC(C)=O)C1OC(C)=O.CC[PH+](CC)CC.CC[PH+](CC)CC.[Au].[Au]` (stereo not drawn) the GI50 was 0.187 µM and the TGI was 0.49 µM.
`Cc1cc(C)n(CCNCCn2nc(C)cc2C)n1` was tested, and the TGI was > 1 µM.
